Assay results: patent publication US11000033B2, “Ketone or oxime compound, and herbicide” (NISSAN CHEMICAL CORPORATION, priority 2014, dated 2021)

Experiments:
Format in all cases: in vivo
[1] = tested on: Setaria viridis; experiment: Test Example 4: herbicidal effect by soil treatment (symbol G); details: 320 g/ha
How it was run: (§1)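 Seeds were sown in sterilized diluvial soil, covered with about 1.5 cm of soil, and the soil surface was sprayed with a water-diluted emulsion of the compound at a predetermined rate. Plants grew in a greenhouse at 25° C. to 30° C.; effects were scored visually 3 weeks after application.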

[2] = tested on: Avena fatua; experiment: Test Example 5: herbicidal effect by foliage application, plastic box (symbol I); details: 320 g/ha, 3 weeks after application
How it was run: (§2)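 Effect is rated 3 weeks after a foliar spray of water-diluted emulsion concentrate at a predetermined herbicide amount. Plants had grown 14 days in a 25° C. to 30° C. greenhouse from seed in sterilized diluvial soil.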

[3] = tested on: transplanted rice plant; experiment: Test Example 1: effect on crop, application before weed generation in submerged conditions (symbol a); details: application herbicide amount 320 g/ha
How it was run: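 Alluvial soil pots flooded to 4 cm water, sown with Echinochloa oryzacola, Scirpus juncoides and Monochoria vaginalis, then transplanted with 2.5 leaf stage rice seedlings; pre-emergence application. Greenhouse 25° C. to 30° C.; scored 0–5 by herbicidal ratio 3 weeks after application.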

[4] = tested on: Veronica persica; experiment: Test Example 4: herbicidal effect by soil treatment (symbol R); details: 320 g/ha
How it was run: as §1

[5] = tested on: Monochoria vaginalis; experiment: Test Example 1: herbicidal activity, application before weed generation in submerged conditions (symbol C); details: application herbicide amount 320 g/ha
How it was run: (§3)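 Weeds are sown into submerged alluvial soil alongside transplanted 2.5-leaf rice, and the compound, as an emulsion diluted to a set rate, is applied onto the water before emergence. Rating on the 0–5 herbicidal-ratio scale follows 3 weeks of greenhouse growth at 25–30 °C.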

[6] = tested on: Echinochloa oryzacola Vasing.; experiment: Test Example 1: herbicidal activity, application before weed generation in submerged conditions (symbol A); details: application herbicide amount 320 g/ha
How it was run: as §3

[7] = tested on: directly sowed rice plant; experiment: Test Example 3: effect on crop by foliage application, Wagner pot (symbol b); details: application herbicide amount 320 g/ha
How it was run: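 Plants are raised from seed in flooded paddy conditions: water stands 0.1–0.5 cm over alluvial soil, and the pot is kept in a greenhouse at 25–30 °C. Species sown are barnyardgrass (E. crus-galli var. crus-galli), Leptochloa chinensis, Cyperus difformis and rice.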

[8] = tested on: Galium spurium; experiment: Test Example 4: herbicidal effect by soil treatment (symbol Q); details: 320 g/ha
How it was run: as §1

[9] = tested on: Lolium multiflorum Lam.; experiment: Test Example 5: herbicidal effect by foliage application, plastic box (symbol K); details: 320 g/ha, 3 weeks after application
How it was run: as §2

[10] = tested on: Apera spica-venti; experiment: Test Example 4: herbicidal effect by soil treatment (symbol L); details: 320 g/ha
How it was run: as §1

[11] = tested on: Digitaria ciliaris; experiment: Test Example 5: herbicidal effect by foliage application, plastic box (symbol F); details: 320 g/ha, 3 weeks after application
How it was run: as §2

[12] = tested on: rapeseed; experiment: Test Example 5: effect on crop by foliage application, plastic box (symbol g); details: 320 g/ha, 3 weeks after application
How it was run: (§4)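 A greenhouse held between 25° C. and 30° C. was used to grow plants sown spot-wise, beneath ~1.5 cm of soil, in boxes of sterilized diluvial soil.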

[13] = tested on: wheat; experiment: Test Example 5: effect on crop by foliage application, plastic box (symbol e); details: 320 g/ha, 3 weeks after application
How it was run: as §4

[14] = tested on: Stellaria media; experiment: Test Example 4: herbicidal effect by soil treatment (symbol P); details: 320 g/ha
How it was run: as §1

[15] = tested on: Abutilon theophrasti; experiment: Test Example 4: herbicidal effect by soil treatment (symbol M); details: 320 g/ha
How it was run: as §1

[16] = tested on: Scirpus juncoides; experiment: Test Example 1: herbicidal activity, application before weed generation in submerged conditions (symbol B); details: application herbicide amount 320 g/ha
How it was run: as §3

[17] = tested on: Apera spica-venti; experiment: Test Example 5: herbicidal effect by foliage application, plastic box (symbol L); details: 320 g/ha, 3 weeks after application
How it was run: as §2

Row | SMILES | G: Setaria viridis, herbicidal effect grade [1] | I: Avena fatua, herbicidal effect (criteria 0-5) [2] | Effect grade on crop, a: transplanted rice plant [3] | R: Veronica persica, herbicidal effect grade [4] | Herbicidal effect grade, C: Monochoria vaginalis [5] | Herbicidal effect grade, A: Echinochloa oryzacola Vasing. [6] | effect on crop b (directly sowed rice plant), grade 0-5 [7] | Q: Galium spurium, herbicidal effect grade [8] | K: Lolium multiflorum Lam., herbicidal effect (criteria 0-5) [9] | L: Apera spica-venti, herbicidal effect grade [10] | F: Digitaria ciliaris, herbicidal effect (criteria 0-5) [11] | g: rapeseed, effect on crop (criteria 0-5) [12] | e: wheat, effect on crop (criteria 0-5) [13] | P: Stellaria media, herbicidal effect grade [14] | M: Abutilon theophrasti, herbicidal effect grade [15] | Herbicidal effect grade, B: Scirpus juncoides [16] | L: Apera spica-venti, herbicidal effect (criteria 0-5) [17]
1 | CON=C(C)CC1CC(OC(=O)c2cc(C)on2)=C(c2c(C)cc(C)cc2C)C1=O (stereo not shown) [1-100] | 5 (Herbicidal ratio of 90% or more (almost completely withered)) | 5 (Herbicidal ratio of 90% or more (almost completely withered)) | 5 (Herbicidal ratio of 90% or more (almost completely withered)) | 1 (Herbicidal ratio of 5% or higher and lower than 20%) | 3 (Herbicidal ratio of 40% or higher and lower than 70%) | 5 (Herbicidal ratio of 90% or more (almost completely withered)) | 5 (Herbicidal ratio of 90% or more (almost completely withered)) | 0 (Herbicidal ratio of 5% or lower (almost no effect)) | 5 (Herbicidal ratio of 90% or more (almost completely withered)) | 5 (Herbicidal ratio of 90% or more (almost completely withered)) | 5 (Herbicidal ratio of 90% or more (almost completely withered)) | 5 (Herbicidal ratio of 90% or more (almost completely withered)) | 5 (Herbicidal ratio of 90% or more (almost completely withered)) | 0 (Herbicidal ratio of 5% or lower (almost no effect)) | 4 (Herbicidal ratio of 70% or higher and lower than 90%) | 5 (Herbicidal ratio of 90% or more (almost completely withered)) | 5 (Herbicidal ratio of 90% or more (almost completely withered))
2 | CON=C(C)CC1CC(OC(=O)c2cnoc2C2CC2)=C(c2c(C)cc(C)cc2C)C1=O (stereo not shown) [1-103] | 5 (Herbicidal ratio of 90% or more (almost completely withered)) | 5 (Herbicidal ratio of 90% or more (almost completely withered)) | 5 (Herbicidal ratio of 90% or more (almost completely withered)) | 0 (Herbicidal ratio of 5% or lower (almost no effect)) | 1 (Herbicidal ratio of 5% or higher and lower than 20%) | 5 (Herbicidal ratio of 90% or more (almost completely withered)) | 5 (Herbicidal ratio of 90% or more (almost completely withered)) | 0 (Herbicidal ratio of 5% or lower (almost no effect)) | 5 (Herbicidal ratio of 90% or more (almost completely withered)) | 4 (Herbicidal ratio of 70% or higher and lower than 90%) | 5 (Herbicidal ratio of 90% or more (almost completely withered)) | 4 (Herbicidal ratio of 70% or higher and lower than 90%) | 5 (Herbicidal ratio of 90% or more (almost completely withered)) | 0 (Herbicidal ratio of 5% or lower (almost no effect)) | 5 (Herbicidal ratio of 90% or more (almost completely withered)) | 5 (Herbicidal ratio of 90% or more (almost completely withered)) | 5 (Herbicidal ratio of 90% or more (almost completely withered))
3 | CON=C(C)CC1CC(OC(=O)N2CCOCC2)=C(c2c(C)cc(C)cc2C)C1=O (stereo not shown) [1-104] | 5 (Herbicidal ratio of 90% or more (almost completely withered)) | 5 (Herbicidal ratio of 90% or more (almost completely withered)) | 3 (Herbicidal ratio of 40% or higher and lower than 70%) | 0 (Herbicidal ratio of 5% or lower (almost no effect)) | 1 (Herbicidal ratio of 5% or higher and lower than 20%) | 5 (Herbicidal ratio of 90% or more (almost completely withered)) | 5 (Herbicidal ratio of 90% or more (almost completely withered)) | 0 (Herbicidal ratio of 5% or lower (almost no effect)) | 5 (Herbicidal ratio of 90% or more (almost completely withered)) | 5 (Herbicidal ratio of 90% or more (almost completely withered)) | 5 (Herbicidal ratio of 90% or more (almost completely withered)) | 4 (Herbicidal ratio of 70% or higher and lower than 90%) | 0 (Herbicidal ratio of 5% or lower (almost no effect)) | 0 (Herbicidal ratio of 5% or lower (almost no effect)) | 4 (Herbicidal ratio of 70% or higher and lower than 90%) | 4 (Herbicidal ratio of 70% or higher and lower than 90%) | 5 (Herbicidal ratio of 90% or more (almost completely withered))
4 | CON=C(C)CC1CC(OC(=O)N(C)C)=C(c2c(C)cc(C)cc2C)C1=O (stereo not shown) [1-108] | 5 (Herbicidal ratio of 90% or more (almost completely withered)) | 5 (Herbicidal ratio of 90% or more (almost completely withered)) | 5 (Herbicidal ratio of 90% or more (almost completely withered)) | 0 (Herbicidal ratio of 5% or lower (almost no effect)) | 3 (Herbicidal ratio of 40% or higher and lower than 70%) | 5 (Herbicidal ratio of 90% or more (almost completely withered)) | 5 (Herbicidal ratio of 90% or more (almost completely withered)) | 0 (Herbicidal ratio of 5% or lower (almost no effect)) | 5 (Herbicidal ratio of 90% or more (almost completely withered)) | 5 (Herbicidal ratio of 90% or more (almost completely withered)) | 5 (Herbicidal ratio of 90% or more (almost completely withered)) | 4 (Herbicidal ratio of 70% or higher and lower than 90%) | 3 (Herbicidal ratio of 40% or higher and lower than 70%) | 0 (Herbicidal ratio of 5% or lower (almost no effect)) | 4 (Herbicidal ratio of 70% or higher and lower than 90%) | 4 (Herbicidal ratio of 70% or higher and lower than 90%) | 5 (Herbicidal ratio of 90% or more (almost completely withered))
5 | CC(CC1CC(O)=C(c2c(C)cc(C)cc2C)C1=O)=NOCC1CC1(F)F (stereo not shown) [1-109] | 5 (Herbicidal ratio of 90% or more (almost completely withered)) | 5 (Herbicidal ratio of 90% or more (almost completely withered)) | 5 (Herbicidal ratio of 90% or more (almost completely withered)) | 2 (Herbicidal ratio of 20% or higher and lower than 40%) | 3 (Herbicidal ratio of 40% or higher and lower than 70%) | 5 (Herbicidal ratio of 90% or more (almost completely withered)) | 5 (Herbicidal ratio of 90% or more (almost completely withered)) | 0 (Herbicidal ratio of 5% or lower (almost no effect)) | 5 (Herbicidal ratio of 90% or more (almost completely withered)) | 5 (Herbicidal ratio of 90% or more (almost completely withered)) | 5 (Herbicidal ratio of 90% or more (almost completely withered)) | 4 (Herbicidal ratio of 70% or higher and lower than 90%) | 5 (Herbicidal ratio of 90% or more (almost completely withered)) | 0 (Herbicidal ratio of 5% or lower (almost no effect)) | 4 (Herbicidal ratio of 70% or higher and lower than 90%) | 5 (Herbicidal ratio of 90% or more (almost completely withered)) | 5 (Herbicidal ratio of 90% or more (almost completely withered))
